# Values joined by “and” are separate entries in the source; they are usually repeats but may differ in a detail not shown here. Identical values can stand only once.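 How tested: cells in 96-well plates exposed to compound for 48 hours at five concentrations. GI50: concentration for 50% inhibition of growth. The concentration for full growth arrest is given as TGI.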
# Assays:
# Assay in all cases: growth of human tumour cells (NCI), 48 h
# OVCAR-4 ovarian = test system: OVCAR-4 ovarian
# OVCAR-5 ovarian = test system: OVCAR-5 ovarian
# SN12C renal = test system: SN12C renal
# HCC-2998 colon = test system: HCC-2998 colon
# SF-268 CNS = test system: SF-268 CNS
# NCI-H460 lung = test system: NCI-H460 lung
# CCRF-CEM leukemia = test system: CCRF-CEM leukemia
# PC-3 prostate = test system: PC-3 prostate
# T-47D breast = test system: T-47D breast
# DU-145 prostate = test system: DU-145 prostate
Structure (SMILES),TGI (OVCAR-4 ovarian),TGI (OVCAR-5 ovarian),TGI (SN12C renal),TGI (HCC-2998 colon),TGI (SF-268 CNS),TGI (NCI-H460 lung),TGI (CCRF-CEM leukemia),GI50 (OVCAR-4 ovarian),GI50 (OVCAR-5 ovarian),GI50 (SN12C renal),GI50 (CCRF-CEM leukemia),GI50 (PC-3 prostate),TGI (PC-3 prostate),GI50 (SF-268 CNS),GI50 (T-47D breast),TGI (T-47D breast),GI50 (DU-145 prostate),TGI (DU-145 prostate),GI50 (NCI-H460 lung),GI50 (HCC-2998 colon)
COc1ccccc1NC(=O)CC(=O)n1nc(C)c(N=Nc2ccccc2F)c1C,> 100 µM,> 100 µM,> 100 µM,> 100 µM,> 93.3 µM,> 100 µM,,,,,,,,,,,,,,
C/C(=N\NC(=S)N(C)C)c1ncc[nH]1,,6.19 µM,66.5 µM,38.6 µM,> 100 µM,> 100 µM,54.9 µM,,,,,,,,,,,,,
CC(C)=CC(=O)Cc1nc2ccccc2[nH]c1=O,> 100 µM,> 100 µM,> 100 µM,> 100 µM,> 100 µM,> 100 µM,> 100 µM,,,,,,,,,,,,,
COc1ccc(Cl)cc1N1C(=O)C(Cl)=C(Nc2cccc(O)c2)C1=O,40 µM,94.4 µM,29.8 µM,,30.7 µM,48.6 µM,43.8 µM,16.7 µM,28.7 µM,14.7 µM,14.5 µM,17.8 µM,38.6 µM,13.2 µM,22.6 µM,> 100 µM,21.8 µM,> 100 µM,17.9 µM,
CCCCCCC(C)CC(CCCCCC)NCCOC(=O)c1ccc([N+](=O)[O-])cc1 (centres undefined),26.5 µM and 26.9 µM,> 100 µM and 50 µM,25.2 µM and 23.8 µM,42.8 µM and 9.35 µM,30.7 µM and 27.6 µM,29.4 µM and 18.4 µM,12.6 µM and 18.3 µM,,,,,,,,,39.3 µM and 38.1 µM,,30.1 µM and 25.6 µM,13.7 µM and 5.28 µM,
CNC(=O)c1cc(Oc2ccc3nc(NC(=O)Nc4ccc(Cl)c(Cl)c4)sc3c2)ccn1,4.03 µM,,> 100 µM,> 100 µM,4.21 µM,5.32 µM,> 100 µM,2.06 µM,,3.92 µM,> 100 µM,,,1.98 µM,2.65 µM,6.36 µM,2.45 µM,6.29 µM,2.43 µM,5.04 µM
CCCCCCCCCCCCCCCC(=O)NC1CCc2cc(O)c(O)c(O)c2-c2ccc(SC)c(=O)cc21 (centres undefined),28.9 µM,26.8 µM,35.8 µM,20.9 µM,23 µM,19.6 µM,46.2 µM,,,,,,,,,,,,,
CCN=C1NN=C(c2ccccc2)c2cc(Cl)ccc2N1,> 100 µM,60.9 µM,88.5 µM,34.4 µM,91.1 µM,,> 100 µM,,,,,,,,,,,,,
COc1cc2c(cc1OC)-c1c(cnn1C1OC(COC(C)=O)C(OC(C)=O)C(OC(C)=O)C1OC(C)=O)CC2 (centres undefined),> 100 µM,> 100 µM,,,> 100 µM,> 100 µM,> 100 µM,,,,,,,,,,,,,
Cc1c(C(=O)/C=C/c2ccc(O)cc2)nnn1-c1ccnc2c(C(F)(F)F)cccc12,,> 100 µM,> 100 µM,> 100 µM,71.8 µM,> 100 µM,> 100 µM,,> 100 µM,18 µM,4.54 µM,7.88 µM,> 100 µM,4.08 µM,5.53 µM,> 100 µM,30.1 µM,> 100 µM,15 µM,20.9 µM
Nc1cc(N)c2nc(-c3ccccc3)c(Nc3ccc(F)cc3)nc2c1,48.8 µM,> 100 µM,33.9 µM,,41 µM,> 100 µM,,13.4 µM,38.4 µM,15.6 µM,,11.7 µM,> 100 µM,13.2 µM,,,12 µM,28.3 µM,26.4 µM,
C/C(=N\NC(N)=S)c1ccc2c(c1)OCO2,,> 100 µM,> 100 µM,> 100 µM,> 100 µM,> 100 µM,> 100 µM,,,,,,,,,,,,,
COc1cc2c(cc1OCCCCCOc1cc(-c3ccc(F)cc3)nc(C)n1)N=C[C@@H]1CCCN1C2=O,> 79.7 µM,> 100 µM,> 71.2 µM,,> 65.2 µM,> 58.5 µM,> 45.2 µM,> 40.6 µM,> 100 µM,> 44.2 µM,,> 33.3 µM,> 60.5 µM,> 32.5 µM,6.27 µM,59.6 µM,> 39.8 µM,> 87.4 µM,> 36 µM,
CC1(C)OC2C(CO)OC(n3ccc(=O)[nH]c3=O)C2O1 (centres undefined),,> 100 µM,> 100 µM,> 100 µM,> 100 µM,> 100 µM,> 100 µM,,,,,,> 100 µM,,,> 100 µM,,> 100 µM,,
CCOC(=O)/C(C#N)=C(O)/C(=C/c1ccccc1Cl)NC(=O)c1ccccc1,> 100 µM,> 100 µM,> 100 µM,> 100 µM,> 100 µM,> 100 µM,> 100 µM,,,,,,,,,,,,,
O=C1CCC(c2nc3ccccc3o2)C(=O)N1 (centres undefined),> 100 µM,,> 100 µM,> 100 µM,> 100 µM,> 100 µM,> 100 µM,,,,,,,,,,,,,
OCCN(CO)CN(CN(CO)CCO)c1nc(N(CN(CO)CCO)CN(CO)CCO)nc(N(CN(CO)CCO)CN(CO)CCO)n1,4.8 ng/mL,76.8 ng/mL,6.06 ng/mL,,2.93 ng/mL,2.53 ng/mL,2.52 ng/mL,1.7 ng/mL,2.02 ng/mL,1.49 ng/mL,0.55 ng/mL,1.48 ng/mL,4.46 ng/mL,1.35 ng/mL,1.09 ng/mL,3.21 ng/mL,1.9 ng/mL,78.3 ng/mL,1.17 ng/mL,
O=C(Nc1ccc(C(F)(F)F)cc1[N+](=O)[O-])C(=O)C(C(=O)c1ccc2ccccc2c1)C1OC(=O)c2ccccc21 (centres undefined),> 50.4 µM,26.5 µM,33.5 µM,18.3 µM,52 µM,15.6 µM,35.5 µM,,,,,,,,,,,,,
O=C(CC(=O)Nc1ccc(Cl)cc1)NNCC(=O)Nc1nc(-c2ccccc2)cs1,> 100 µM,,> 100 µM,> 100 µM,> 100 µM,> 100 µM,> 100 µM,,,,,,,,,,,,,
O=[N+]([O-])c1ccc(Cc2nc3ccccc3s2)cc1,> 100 µM,> 100 µM,> 100 µM,> 100 µM,> 100 µM,> 100 µM,> 100 µM,,,,,,,,,,,,,
Cc1cccc(C(C)(C)C)c1NC(=O)CC1C(=O)Nc2ccccc2S1=O (centres undefined),80.1 µM,> 100 µM,> 100 µM,> 100 µM,> 100 µM,> 100 µM,,,,,,,,,,,,,,
N#CCCc1nc2ccc(Br)cc2c(=O)n1-c1ccc(O)c([N+](=O)[O-])c1,38.8 µM,> 100 µM,38.6 µM,37.4 µM,63.1 µM,66.9 µM,71.7 µM,,,,,,,,,,,,,
